The target in assay [1] is T1, Wee1 (Homo sapiens, UniProt P30291).
T1 construct: Eurofins
Briefly: In vitro enzyme inhibitory activity, Wee1 kinase radiometric ([33P]-ATP) assay at Eurofins. The format is biochemical. The conditions noted are these: in vitro enzymatic activity; 40 min at room temperature, peptide substrate 500 μM. As to the method: The compounds used for experiments were all prepared in-house, and their chemical names and structural formulas were shown in the preparation examples for each compound. The experimental tests were carried out in Eurofins, which provided the experimental results.
In the Wee1 reaction system, 20 mM Tris-HCl, pH 8.5, 0.2 mM EDTA, 500 μM polypeptide substrate ([…]) (Sequence ID No. 1), 10 mM magnesium acetate and a certain concentration of […] (intensity of about 500 cpm/pmol) were added. Addition of Mg^2+ and ATP mixed solution initiated the reaction. Incubation was performed at room temperature for 40 min and 3% phosphate buffer was added to terminate the reaction. 10 μL of the reaction solution was filtered on a continuous filter P30, and washed with 75 mM phosphate buffer three times, and washed with methanol once, 5 min for each time. After drying, the scintillation counting was used to read the values.

Assay [2] relates to Human pancreatic cancer PC-07-0049 subcutaneously transplanted tumor. Briefly: In vivo pharmacodynamics study on human pancreatic cancer PC-07-0049 subcutaneously transplanted tumor model in nude mice. On the set-up: species or system BALB/c nude mice. Particulars: for TGI (%): PC-07-0049 tumor in BALB/c nude mice. The source says: Procedures: The selected experimental animals were BALB/c nude mice (6 animals per group), 6-8 weeks old, weigh 16-21 grams.
The establishment of the Human pancreatic carcinoma PC-07-0049 model was originally derived from surgically excised clinical samples, which was defined as the P0 generation after implantation in nude mice. The implantation of the tumor tissue of P0 generation into the next generation was defined as the P1 generation. The implantation was continued in nude mice in this way. The tumor of FP3 was revived through the P2 generation. The next generation generated by the FP3 generation was defined as FP4, and so on. The tumor tissue of the FP5 generation will be used for the drug efficacy test.
The PC-07-0049 FP5 tumor tissue was cut into small pieces (20-30 mm^3) after removing the necrotic tissue and was inoculated subcutaneously on the right back of each nude mouse. When the average tumor volume reached about 193 mm^3, according to the tumor volume, the animals were divided into random groups and administered.
The experimental index was to investigate whether tumor growth was inhibited, delayed or cured. The diameters of the tumors were measured with a vernier caliper twice a week. The tumor suppression efficacy of the compound was evaluated by TGI (%) or the relative tumor proliferation rate T/C (%). TGI (%) reflects the tumor growth inhibition rate. Calculation of TGI (%): TGI (%)=[(1−(Average tumor volume at the end of a treatment group−average tumor volume at the beginning of the treatment group))/(Average tumor volume at the end of treatment in the solvent control group−the average tumor volume at the beginning of treatment in the solvent control group)]×100%.

T1 sequence (P30291 whole entry): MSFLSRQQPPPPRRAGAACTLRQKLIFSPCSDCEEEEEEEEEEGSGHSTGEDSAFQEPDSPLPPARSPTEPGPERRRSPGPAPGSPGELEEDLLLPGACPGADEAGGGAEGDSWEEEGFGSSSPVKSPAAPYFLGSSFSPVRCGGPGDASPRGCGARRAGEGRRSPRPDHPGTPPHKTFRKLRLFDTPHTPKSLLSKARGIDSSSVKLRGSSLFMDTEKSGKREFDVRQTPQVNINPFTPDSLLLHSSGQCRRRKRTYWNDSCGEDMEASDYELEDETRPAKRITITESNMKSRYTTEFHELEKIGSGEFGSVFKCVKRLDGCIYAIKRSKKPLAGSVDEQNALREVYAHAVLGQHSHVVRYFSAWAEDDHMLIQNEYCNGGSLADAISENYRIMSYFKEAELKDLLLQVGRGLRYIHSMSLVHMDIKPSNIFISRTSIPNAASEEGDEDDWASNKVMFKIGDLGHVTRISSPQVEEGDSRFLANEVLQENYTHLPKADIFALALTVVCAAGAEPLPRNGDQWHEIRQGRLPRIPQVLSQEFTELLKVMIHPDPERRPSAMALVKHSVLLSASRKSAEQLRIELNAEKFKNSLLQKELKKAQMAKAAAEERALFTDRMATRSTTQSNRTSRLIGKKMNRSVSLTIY

Take `C/C1=C/CC[C@@](C)(O)c2cccc(n2)-n2c3nc(Nc4ccc(N5CCN(C)CC5)cc4)ncc3c(=O)n2C1` [Compound 1]: the half-maximal inhibitory concentration (IC50) in assay [1] is 130 nM.
Same read-out and setting: the same measure for `CN1CCC(n2ccc3cc(Nc4ncc5c(=O)n6n(c5n4)-c4cccc(n4)[C@](C)(O)CC/C=C(/F)C6)ccc32)CC1` [Compound 2]: 37 nM.
Molecule `CN1CCN(c2ccc(Nc3ncc4c(=O)n5n(c4n3)-c3cccc(n3)[C@](C)(O)CC/C=C(/F)C5)cc2)CC1` [Compound 3] showed an IC50 in assay [1] of 28 nM. In assay [2] (combination of compound 3 and gemcitabine compared with gemcitabine alone, conclusion drawn from Table 2), the “inhibitory effect on mouse tumor (in words)” value is “significantly improve the inhibitory effect on mouse tumor”. In assay [2] (compound 3 50 mg/kg once per day in combination with gemcitabine 20 mg/kg twice per week), the “TGI (%)” value was 102%.
`CN1CCN(c2ccc(Nc3ncc4c(=O)n5n(c4n3)-c3cccc(n3)[C@@](C)(O)CC/C=C(/F)C5)cc2)CC1` [Compound 4] came in with a half-maximal inhibitory concentration (IC50) in assay [1] of 110 nM.
On the same count and under the same terms, as for `CN1CCN(c2ccc(Nc3ncc4c(=O)n5n(c4n3)-c3cccc(n3)[C@](C)(O)CC/C=C(\F)C5)cc2)CC1` [Compound 5], the figure is 43 nM.
With `Nc1ccn([C@@H]2O[C@H](CO)[C@@H](O)C2(F)F)c(=O)n1` [Gemcitabine, reference compound], the “TGI (%)” value in assay [2] (gemcitabine alone, 20 mg/kg twice per week) is recorded as 58%.

These data come from patent US12180184B2, “Pyrimidopyrazolone derivative as Wee1 inhibitor and use thereof” (Wuxi Biocity Biopharmaceutics Co., Ltd., priority 2018, dated 2024).
